In patent publication US20230248626A1, “Compositions Comprising (Bio)-Alkanediols” (Symrise AG, priority 0001, published 2023):
Values after ≈ are worked out from the molar mass of the structure shown. Like-named read-outs stand apart in the source and are kept apart here.

Key:
Staphylococcus aureus = assay: MIC test (growth inhibition, 96 well plates, OD); format: cell-based; details: read-out: Minimum Inhibitory Concentration (MIC)
Protocol: (§1) The MIC test is a test on growth inhibition. Estimation of Minimum Inhibitory Concentration (MIC) is executed in 96 well plates. Through the comparison of bacterial growth with positive and negative controls via optical density (OD), different concentrations of given test substances are evaluated.
(§2) Bacteria are cultivated under adjusted conditions based on information of the German Collection of Microorganisms and Cell Cultures (DSMZ) and stored in 50% Glycerol prior to use. Afterwards, the following method was applied: Adding growth medium (according to microorganism) to each well of the microplate. Adding the test-substances in different concentrations, positive controls (water controls only with medium) and negative controls (benchmarks according to organism). Adding the microorganism in a concentration of 10^6 CFU/ml (CFU=colony forming units). Incubation of the microplates at appropriate conditions.
(§3) According to resulting growth, substance concentrations are labelled either as inhibiting or not and MIC is defined as the lowest concentration where a complete growth inhibition is visible. Experiments at concentration limits (highest concentration labelled as growth and lowest concentration labelled as inhibiting) are performed at least twice.

Candida albicans = assay: MIC test (growth inhibition, 96 well plates, OD); format: cell-based; details: read-out: Minimum Inhibitory Concentration (MIC)
Protocol: as §1, §2, §3

Corynebacterium jeikeium = assay: MIC test (growth inhibition, 96 well plates, OD); format: cell-based; details: read-out: Minimum Inhibitory Concentration (MIC)
Protocol: as §1, §2, §3

Propionibacterium acnes = assay: MIC test (growth inhibition, 96 well plates, OD); format: cell-based; details: Cutibacterium acnes; read-out: Minimum Inhibitory Concentration (MIC)
Protocol: as §1, §2, §3

Escherichia coli = assay: MIC test (growth inhibition, 96 well plates, OD); format: cell-based; details: read-out: Minimum Inhibitory Concentration (MIC)
Protocol: as §1, §2, §3

Staphylococcus hominis = assay: MIC test (growth inhibition, 96 well plates, OD); format: cell-based; details: read-out: Minimum Inhibitory Concentration (MIC)
Protocol: as §1, §2, §3

Aspergillus brasiliensis = assay: MIC and Kull synergy index of 1,2-/2,3-alkanediol mixtures; format: cell-based
[1] = Sensory evaluation on the backside of the hand (spreading, fatty/greasy skin feel, absorption), untrained panellists; details: for Absorption/remaining residue with alkanediol: scale 1 to 5
Protocol: For evaluating the sensory behaviour, liquid lipophilic components specified in the following table were blended with 1,2-heptanediol or 2,3-heptanediol or a mixture of 1,2-heptanediol and 2,3-heptanediol or 1,2-octanediol or 2,3-octanediol or a mixture of 1,2-octanediol and 2,3-octanediol (formulation) in a ratio of 85:15 and assessed by untrained panellists in comparison to the liquid lipophilic component without addition of the specified alkanediols (placebo).
The test procedure was carried as follows: For evaluating the sensory behaviour of 1,2-alkanediols and/or 2,3-alkanediols in combination with different liquid lipophilic components, oil components specified in the following table were blended with a 1,2-alkanediol or a 2,3-alkanediol or a mixture including a 1,2-alkanediol and a 2,3-alkanediol in a ratio as specified in Table 53 and assessed by untrained panellists in comparison to the liquid lipophilic component without addition of the 1,2-alkanediol or 2,3-alkanediol or the mixture including a 1,2-alkanediol and 2,3-alkanediol (placebo).
Test Procedure: • Hands were pre-washed with liquid soap by following a defined procedure; 30 μl of corresponding sample was applied on the backside of each hand (randomized); • After 30 s the spreading behaviour of the respective formulation on skin was evaluated versus the respective oil component without 1,2-heptanediol on a scale from 1 to 5 (1=low spreading; 5=high spreading); • The samples were distributed with the fingertips of middle and forefinger with 2×5 cycles; • After 2 minutes, the fatty/greasy skin feel was evaluated on a scale from 1 to 5 (1=low fatty/greasy skin feel; 5=high fatty/greasy skin feel); • Furthermore the applicants were asked to assess the absorption, i.e. the impression of amount of remaining residue on the skin on a scale from 1 to 5 (1=low absorption; 5=high absorption).

[2] = tested on: Aspergillus brasiliensis (AB); assay: Preservation efficacy test (PET), European Pharmacopoeia 5.1.3; format: cell-based
Protocol: (§4) The preservation efficacy test (PET) was performed in accordance with European Pharmacopoeia § 5.1.3: The test is a reference European Pharmacopoeia method, that is to be used to evaluate the preservation system of a cosmetic or pharmaceutical preparation. The test consists of challenging the preparation under test, with prescribed inoculums of suitable microorganisms. The preservation porperties of the preparation are adequate if, in the conditions of the test, there is a significant fall or no increase, as appropriate, in the number of microorganisms in the inoculated preparations after the time prescribed.
(§5) The test microorganisms which were used, are the following:
(§6) Pseudomonas aeruginosa (PA) (bacterium); Staphylococcus aureus (SA) (bacterium); Escherichia coli (EC) (bacterium); Candida albicans (CA) (yeast); and Aspergillus brasiliensis (AB) (fungus).

Candida albicans (CA) = assay: as above; format: cell-based
Protocol: as §4, §5, §6

[3] = tested on: Pseudomonas aeruginosa (PA); assay: as above; format: cell-based
Protocol: as §4, §5, §6

Escherichia coli (EC) = assay: as above; format: cell-based
Protocol: as §4, §5, §6

[4] = tested on: Staphylococcus aureus (SA); assay: as above; format: cell-based
Protocol: as §4, §5, §6

human sebaceous glands = assay: Sebum production of micro-dissected, cultured human sebaceous glands (lipids/proteins after six days); format: cell-based; design: sebum reduction: concentration or dose not given beside the values; details: compared to untreated control; six days; single donor (FIG. 4)
Protocol: Additional tests were performed with human sebaceous glands in order to verify the modulatory activity of different 1,2-alkanediols and 2,3-alkanediols on sebum secretion. Several microbial species on the skin are lipid dependent and feed on the human sebum (e.g. Corynebacterium, Propionibacterium). Accordingly, sebum reduction can indirectly support the reduction of microorganisms on the skin and in this way also indirectly support e.g. dandruff or acne reduction.
For these experiments sebaceous glands had been micro-dissected and cultured with medium. The medium without any supplement served as untreated control. Medium with 5 μM Capsaicin served as positive control. Additionally, culture medium was supplemented with different concentrations of alkanediols. After six days the sebaceous glands were collected and lipids and proteins quantified. The total lipid amount being representative of sebum production was obtained by normalizing the quantified lipids upon the quantified proteins (i.e. mg of lipids/mg of proteins).

[5] = single 1,2-alkanediol, read-out: MIC Component A
[6] = blend with Caprylic Capric Triglyceride (CCT) (neutral oil), rows r187-r195, vs without
[7] = blend with Caprylic Capric Triglyceride (CCT) (neutral oil), rows r187-r195

Structure (SMILES): CCCCCCCCC(O)CO (stereo not drawn) [1,2-Decanediol, 1,2-decanediol, reference compound]
- MIC (Staphylococcus aureus): 250 µg/mL (≈ 1430 µM)
- MIC (Candida albicans): 250 µg/mL (≈ 1430 µM)
- MIC (Corynebacterium jeikeium): 2500 µg/mL (≈ 14300 µM)
- MIC (Propionibacterium acnes): 500 µg/mL (≈ 2870 µM)
- MIC (Escherichia coli): 250 µg/mL (≈ 1430 µM)
- MIC (Staphylococcus hominis): 500 µg/mL (≈ 2870 µM)

Structure (SMILES): CCCCC(O)CO (stereo not drawn) [1,2-hexanediol]
- MIC (Aspergillus brasiliensis; [5]): 7500 µg/mL
- Absorption/remaining residue Delta [1, 6]: 1.8
- Absorption/remaining residue with alkanediol [1, 7]: 2.8

Structure (SMILES): CCCCCCC(O)CO (stereo not drawn) [1,2-octanediol]
- MIC (Aspergillus brasiliensis; [5]): 2500 µg/mL
- Absorption/remaining residue Delta ([1]; blend with Argan Oil vs without): 1.2
- Absorption/remaining residue with alkanediol ([1]; blend with Argan Oil): 2.6
- Absorption/remaining residue Delta ([1]; blend with Avocado Oil vs without): 1.2
- Absorption/remaining residue with alkanediol ([1]; blend with Avocado Oil): 2.6
- Absorption/remaining residue Delta ([1]; blend with Cacao butter vs without): 0.6
- Absorption/remaining residue with alkanediol ([1]; blend with Cacao butter): 3
- Absorption/remaining residue Delta ([1]; blend with Castor Oil vs without): 1
- Absorption/remaining residue with alkanediol ([1]; blend with Castor Oil): 3.4
- Absorption/remaining residue Delta ([1]; blend with Coconut Oil vs without): 0.8
- Absorption/remaining residue with alkanediol ([1]; blend with Coconut Oil): 3
- Absorption/remaining residue Delta ([1]; blend with Grapeseed Oil vs without): 1
- Absorption/remaining residue with alkanediol ([1]; blend with Grapeseed Oil): 1.6
- Absorption/remaining residue Delta ([1]; blend with Helianthus Annuus (Sunflower) Seed Oil vs without): 1.8
- Absorption/remaining residue with alkanediol ([1]; blend with Helianthus Annuus (Sunflower) Seed Oil): 2
- Absorption/remaining residue Delta ([1]; blend with Octocrylene (Neo Heliopan 303), vs without): 0.5
- Absorption/remaining residue with alkanediol ([1]; blend with Octocrylene (Neo Heliopan 303)): 3.5
- Absorption/remaining residue Delta ([1]; blend with Olive Oil vs without): 1.4
- Absorption/remaining residue with alkanediol ([1]; blend with Olive Oil): 2.6
- MIC (Staphylococcus aureus): 2500 µg/mL (≈ 17100 µM)
- MIC (Candida albicans): 2500 µg/mL (≈ 17100 µM)
- MIC (Corynebacterium jeikeium): 5000 µg/mL (≈ 34200 µM)
- MIC (Escherichia coli): 5000 µg/mL (≈ 34200 µM)
- MIC (Staphylococcus hominis): 5000 µg/mL (≈ 34200 µM)
- number of microorganisms after 2 days ([2]; 0.1% in wet wipes solution): 22,000,000
- number of microorganisms after 7 days ([2]; 0.1% in wet wipes solution): 8,500,000
- number of microorganisms after 14 days ([2]; 0.1% in wet wipes solution): 11,000,000
- number of microorganisms after 28 days ([2]; 0.1% in wet wipes solution): 12,000,000
- number of microorganisms after 2 days ([2]; 0.2% in o/w emulsion): 2,400,000
- number of microorganisms after 7 days ([2]; 0.2% in o/w emulsion): 2,700,000
- number of microorganisms after 14 days ([2]; 0.2% in o/w emulsion): 2,100,000
- number of microorganisms after 28 days ([2]; 0.2% in o/w emulsion): 1,200,000
- number of microorganisms after 2 days (Candida albicans (CA); 0.1% in wet wipes solution): 4,700,000
- number of microorganisms after 7 days (Candida albicans (CA); 0.1% in wet wipes solution): 3,900,000
- number of microorganisms after 14 days (Candida albicans (CA); 0.1% in wet wipes solution): 5,800,000
- number of microorganisms after 28 days (Candida albicans (CA); 0.1% in wet wipes solution): 9,300,000
- number of microorganisms after 2 days (Candida albicans (CA); 0.2% in o/w emulsion): 950,000
- number of microorganisms after 7 days (Candida albicans (CA); 0.2% in o/w emulsion): 15,000
- number of microorganisms after 14 days (Candida albicans (CA); 0.2% in o/w emulsion): 36
- number of microorganisms after 28 days (Candida albicans (CA); 0.2% in o/w emulsion): 1
- number of microorganisms after 2 days ([3]; 0.1% in wet wipes solution): 1,300,000
- number of microorganisms after 7 days ([3]; 0.1% in wet wipes solution): 2,500,000
- number of microorganisms after 14 days ([3]; 0.1% in wet wipes solution): 750,000
- number of microorganisms after 28 days ([3]; 0.1% in wet wipes solution): 350,000
- number of microorganisms after 2 days ([3]; 0.2% in o/w emulsion): 1
- number of microorganisms after 7 days ([3]; 0.2% in o/w emulsion): 1
- number of microorganisms after 14 days ([3]; 0.2% in o/w emulsion): 1
- number of microorganisms after 28 days ([3]; 0.2% in o/w emulsion): 1
- number of microorganisms after 2 days (Escherichia coli (EC); 0.1% in wet wipes solution): 1,300,000
- number of microorganisms after 7 days (Escherichia coli (EC); 0.1% in wet wipes solution): 3,500,000
- number of microorganisms after 14 days (Escherichia coli (EC); 0.1% in wet wipes solution): 2,100,000
- number of microorganisms after 28 days (Escherichia coli (EC); 0.1% in wet wipes solution): 2,300
- number of microorganisms after 2 days (Escherichia coli (EC); 0.2% in o/w emulsion): 1
- number of microorganisms after 7 days (Escherichia coli (EC); 0.2% in o/w emulsion): 1
- number of microorganisms after 14 days (Escherichia coli (EC); 0.2% in o/w emulsion): 1
- number of microorganisms after 28 days (Escherichia coli (EC); 0.2% in o/w emulsion): 1
- number of microorganisms after 2 days ([4]; 0.1% in wet wipes solution): 425
- number of microorganisms after 7 days ([4]; 0.1% in wet wipes solution): 50
- number of microorganisms after 14 days ([4]; 0.1% in wet wipes solution): 50
- number of microorganisms after 28 days ([4]; 0.1% in wet wipes solution): 50
- number of microorganisms after 2 days ([4]; 0.2% in o/w emulsion): 1
- number of microorganisms after 7 days ([4]; 0.2% in o/w emulsion): 1
- number of microorganisms after 14 days ([4]; 0.2% in o/w emulsion): 1
- number of microorganisms after 28 days ([4]; 0.2% in o/w emulsion): 1

Structure (SMILES): CCCCCCCCCC(O)CO (stereo not drawn) [1,2-undecanediol]
- sebum reduction (human sebaceous glands): 44%

Structure (SMILES): CCCCCCCCC(O)C(C)O (stereo not drawn) [2,3-Undecanediol, 2,3-undecanediol]
- MIC (Staphylococcus aureus): 250 µg/mL (≈ 1330 µM)
- MIC (Candida albicans): 250 µg/mL (≈ 1330 µM)
- MIC (Corynebacterium jeikeium): 250 µg/mL (≈ 1330 µM)
- MIC (Propionibacterium acnes): 250 µg/mL (≈ 1330 µM)
- MIC (Escherichia coli): 500 µg/mL (≈ 2660 µM)
- MIC (Staphylococcus hominis): 250 µg/mL (≈ 1330 µM)
- sebum reduction (human sebaceous glands): more than 50%

Structure (SMILES): CCCC(O)C(C)O (stereo not drawn) [2,3-hexandiol, 2,3-hexanediol]
- MIC (Aspergillus brasiliensis; single 2,3-alkanediol, read-out: MIC Component B): 20000 µg/mL
- Absorption/remaining residue Delta [1, 6]: 1.8
- Absorption/remaining residue with alkanediol [1, 7]: 2.8
